Experiment [1] deals with Serine/threonine-protein kinase B-raf (Homo sapiens, UniProt P15056). Put plainly: Inhibition of B-Raf (unknown origin) by fluorescence polarization assay. On the technique in general: In fluorescence polarisation assays a small probe gives low polarisation when free and higher when bound to something large.
Experiment [2] is filed under the species Homo sapiens. In words: Selectivity ratio of IC50 for IGF1R (unknown origin) to IC50 for B-Raf (unknown origin).
For experiment [3], the species on record is Homo sapiens. In words: Selectivity ratio of IC50 for AKT1 (unknown origin) to IC50 for B-Raf (unknown origin).
The species named for experiment [4] is Homo sapiens. In words: Selectivity ratio of IC50 for aurora-A (unknown origin) to IC50 for B-Raf (unknown origin).
The species entered for experiment [5] is Homo sapiens. Put plainly: Selectivity ratio of IC50 for SYK (unknown origin) to IC50 for B-Raf (unknown origin).
Experiment [6] is filed under the species Homo sapiens. In words: Selectivity ratio of IC50 for SGK1 (unknown origin) to IC50 for B-Raf (unknown origin).
Experiment [7] is filed under the species Homo sapiens. Put plainly: Selectivity ratio of IC50 for aurora-B (unknown origin) to IC50 for B-Raf (unknown origin).
For experiment [8], the species on record is Homo sapiens. In words: Selectivity ratio of IC50 for GSK3beta (unknown origin) to IC50 for B-Raf (unknown origin).
For experiment [9], the species on record is Homo sapiens. Put plainly: Selectivity ratio of IC50 for ERBB2 (unknown origin) to IC50 for B-Raf (unknown origin).
Experiment [10] is filed under the species Homo sapiens. In words: Selectivity ratio of IC50 for BTK (unknown origin) to IC50 for B-Raf (unknown origin).
Experiment [11] is filed under the species Homo sapiens. Put plainly: Selectivity ratio of IC50 for ROCK1 (unknown origin) to IC50 for B-Raf (unknown origin).
Experiment [12] is filed under the species Homo sapiens. Put plainly: Selectivity ratio of IC50 for PKA (unknown origin) to IC50 for B-Raf (unknown origin).
Experiment [13] is filed under the species Homo sapiens. Put plainly: Selectivity ratio of IC50 for IKK2 (unknown origin) to IC50 for B-Raf (unknown origin).
The species named for experiment [14] is Homo sapiens. In words: Selectivity ratio of IC50 for JNK3 (unknown origin) to IC50 for B-Raf (unknown origin).
For experiment [15], the species on record is Homo sapiens. Put plainly: Selectivity ratio of IC50 for ZAP70 (unknown origin) to IC50 for B-Raf (unknown origin).
The species entered for experiment [16] is Homo sapiens. Put plainly: Selectivity ratio of IC50 for EGFR (unknown origin) to IC50 for B-Raf (unknown origin).
The species entered for experiment [17] is Homo sapiens. In words: Selectivity ratio of IC50 for ALK5 (unknown origin) to IC50 for B-Raf (unknown origin).

Data on 20 molecules can be found in ChEMBL document CHEMBL2311416, “The discovery of potent and selective 4-aminothienopyridines as B-Raf kinase inhibitors” (Bioorg Med Chem Lett, 2013).

Molecules are shown by their SMILES. pIC50: −log10 of the molar value.

Chain of Serine/threonine-protein kinase B-raf (P15056 whole entry): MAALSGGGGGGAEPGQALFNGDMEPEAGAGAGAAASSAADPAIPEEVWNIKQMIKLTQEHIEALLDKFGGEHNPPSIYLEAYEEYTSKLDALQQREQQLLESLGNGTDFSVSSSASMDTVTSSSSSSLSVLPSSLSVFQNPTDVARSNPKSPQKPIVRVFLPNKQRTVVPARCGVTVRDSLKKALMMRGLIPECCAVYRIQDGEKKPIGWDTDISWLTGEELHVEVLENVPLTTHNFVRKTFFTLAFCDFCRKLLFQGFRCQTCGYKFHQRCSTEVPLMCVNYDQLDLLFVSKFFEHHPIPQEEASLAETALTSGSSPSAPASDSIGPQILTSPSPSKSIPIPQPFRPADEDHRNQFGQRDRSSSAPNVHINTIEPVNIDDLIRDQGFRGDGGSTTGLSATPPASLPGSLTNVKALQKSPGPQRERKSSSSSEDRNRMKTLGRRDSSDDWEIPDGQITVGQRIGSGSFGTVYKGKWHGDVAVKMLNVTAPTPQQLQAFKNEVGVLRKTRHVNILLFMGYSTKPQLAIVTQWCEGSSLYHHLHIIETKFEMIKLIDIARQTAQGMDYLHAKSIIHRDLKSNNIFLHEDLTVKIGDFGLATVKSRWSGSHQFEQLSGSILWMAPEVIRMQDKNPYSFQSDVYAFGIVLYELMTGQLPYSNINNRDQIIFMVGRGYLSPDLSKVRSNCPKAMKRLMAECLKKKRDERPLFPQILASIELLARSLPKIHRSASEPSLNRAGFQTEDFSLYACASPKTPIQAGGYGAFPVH

For `Cn1cccc1C(=O)Nc1cccc(-c2csc3c(-c4cccnc4)cnc(N)c23)c1`, the pIC50 (as a rule, the negative decadic logarithm of the IC50, by convention in mol/L) in [1] was 5.38.

In experiment [1], `Nc1ncc(-c2cccnc2)c2scc(-c3cccc(NC(=O)c4cc(F)ccc4F)c3)c12` had a negative logarithm of the IC50 (pIC50) of 7.31.

In [1], `CC(C)(C)NC(=O)Nc1cccc(-c2csc3c(-c4cccnc4)cnc(N)c23)c1` showed a pIC50 of 5.10. This pIC50 lies 2.21 log units lower than the previous one.

For `Nc1ncc(-c2cccnc2)c2scc(-c3cccc(NC(=O)Nc4ccc(Cl)c(C(F)(F)F)c4)c3)c12`, the Ratio IC50 in the experiment filed under Homo sapiens [2], in the experiment listed under Homo sapiens [3], in the experiment filed under Homo sapiens [4], in the experiment listed under Homo sapiens [5], in the experiment listed under Homo sapiens [6] and in the experiment listed under Homo sapiens [7] was more than 100 each time. Besides, the Ratio IC50 in the experiment filed under Homo sapiens [8], in the experiment listed under Homo sapiens [9], in the experiment filed under Homo sapiens [10], in the experiment listed under Homo sapiens [11], in the experiment filed under Homo sapiens [12] and in the experiment filed under Homo sapiens [13] was more than 100 each time. The Ratio IC50 in the experiment filed under Homo sapiens [14], in the experiment listed under Homo sapiens [15], in the experiment filed under Homo sapiens [16] and in the experiment listed under Homo sapiens [17] was more than 100 in each case. This molecule also showed a pIC50 in experiment [1] of 7.78.

For `COc1cccc(NC(=O)Nc2cccc(-c3csc4c(-c5cccnc5)cnc(N)c34)c2)c1`, the pIC50 in experiment [1] is 8.02.

As for `Nc1ncc(-c2cccnc2)c2scc(-c3cccc(NC(=O)Nc4ccc(C(F)(F)F)cc4)c3)c12`, the pIC50 in experiment [1] is 7.60.

`Nc1ncc(-c2cccnc2)c2scc(-c3cccc(NC(=O)NCc4ccccc4)c3)c12` showed a pIC50 in [1] of 7.68.

Take `Nc1ncc(-c2cccnc2)c2scc(-c3cccc(NC(=O)Cc4cccs4)c3)c12`: in experiment [1], the pIC50 is 7.35.

For the molecule `Nc1ncc(-c2cccnc2)c2scc(-c3cccc(NC(=O)NC4CCCCC4)c3)c12`, in [1], the negative logarithm of the IC50 (pIC50) was 7.51.

Consider `Nc1ncc(-c2cccnc2)c2scc(-c3cccc(NC(=O)c4ccccc4)c3)c12`, for which, in experiment [1], the negative logarithm of the IC50 (pIC50) was 7.03.

Molecule `Nc1ncc(-c2cccnc2)c2scc(-c3cccc(NC(=O)C4CCCCC4)c3)c12` gave a pIC50 in [1] of 5.81.

In the case of `Nc1ncc(-c2cccnc2)c2scc(-c3cccc(NC(=O)c4cccc(C(F)(F)F)c4)c3)c12`, the Ratio IC50 in the experiment listed under Homo sapiens [2], in the experiment filed under Homo sapiens [3], in the experiment listed under Homo sapiens [4], in the experiment filed under Homo sapiens [5], in the experiment listed under Homo sapiens [6] and in the experiment filed under Homo sapiens [7] was more than 40 each time. The Ratio IC50 in the experiment filed under Homo sapiens [8], in the experiment listed under Homo sapiens [9], in the experiment listed under Homo sapiens [10], in the experiment filed under Homo sapiens [11], in the experiment listed under Homo sapiens [12] and in the experiment listed under Homo sapiens [13] was more than 40 in each case. Moreover, the Ratio IC50 in the experiment filed under Homo sapiens [14], in the experiment listed under Homo sapiens [15], in the experiment filed under Homo sapiens [16] and in the experiment filed under Homo sapiens [17] was more than 40 in each case. This molecule had a negative-log IC50 (pIC50) in experiment [1] of 8.29.

In experiment [1], `Nc1ncc(-c2cccnc2)c2scc(-c3cccc(NC(=O)Nc4ccccc4)c3)c12` had a pIC50 of 7.86.

`Nc1ncc(-c2cccnc2)c2scc(-c3cccc(NC(=O)Nc4ccc(OCc5ccccc5)cc4)c3)c12` had a pIC50 in [1] of 6.03. This pIC50 is 1.83 log units lower than that of the molecule before.

For `Nc1ncc(-c2cccnc2)c2scc(-c3cccc(NS(=O)(=O)c4ccccc4)c3)c12`, the pIC50 in experiment [1] was less than 5.00.

`Cc1noc(C)c1NC(=O)Nc1cccc(-c2csc3c(-c4cccnc4)cnc(N)c23)c1`: the pIC50 in [1] is 6.16.

In [1], `Nc1ncc(-c2cccnc2)c2scc(-c3cccc(NC(=O)Nc4cc(C(F)(F)F)ccc4F)c3)c12` showed a pIC50 of 7.67.

In experiment [1], `Nc1ncc(-c2cccnc2)c2scc(-c3cccc(NC(=O)Cc4ccccc4)c3)c12` showed a pIC50 of 7.72.

Molecule `Nc1ncc(-c2cccnc2)c2scc(-c3cccc(NC(=O)Nc4c(F)cccc4F)c3)c12` gave a pIC50 in experiment [1] of 7.71.

For the molecule `Nc1cccc(-c2csc3c(-c4cccnc4)cnc(N)c23)c1`, the pIC50 in experiment [1] was less than 5.00.
